Read-outs that look alike come from different tables or passages of the source.
What was measured:
human TLR7 = biological target: T1, human TLR7 (Homo sapiens, UniProt Q9NYK1); assay: HEK-Blue hTLR7 SEAP reporter assay; format: cell-based; details: for TLR7 activity rel. to assay max: average maximal SEAP secretion relative to maximum secretion observed in the assay
T1 construct: host or cells: HEK blue hTLR7 reporter cells
T1 sequence (Q9NYK1 27-1049): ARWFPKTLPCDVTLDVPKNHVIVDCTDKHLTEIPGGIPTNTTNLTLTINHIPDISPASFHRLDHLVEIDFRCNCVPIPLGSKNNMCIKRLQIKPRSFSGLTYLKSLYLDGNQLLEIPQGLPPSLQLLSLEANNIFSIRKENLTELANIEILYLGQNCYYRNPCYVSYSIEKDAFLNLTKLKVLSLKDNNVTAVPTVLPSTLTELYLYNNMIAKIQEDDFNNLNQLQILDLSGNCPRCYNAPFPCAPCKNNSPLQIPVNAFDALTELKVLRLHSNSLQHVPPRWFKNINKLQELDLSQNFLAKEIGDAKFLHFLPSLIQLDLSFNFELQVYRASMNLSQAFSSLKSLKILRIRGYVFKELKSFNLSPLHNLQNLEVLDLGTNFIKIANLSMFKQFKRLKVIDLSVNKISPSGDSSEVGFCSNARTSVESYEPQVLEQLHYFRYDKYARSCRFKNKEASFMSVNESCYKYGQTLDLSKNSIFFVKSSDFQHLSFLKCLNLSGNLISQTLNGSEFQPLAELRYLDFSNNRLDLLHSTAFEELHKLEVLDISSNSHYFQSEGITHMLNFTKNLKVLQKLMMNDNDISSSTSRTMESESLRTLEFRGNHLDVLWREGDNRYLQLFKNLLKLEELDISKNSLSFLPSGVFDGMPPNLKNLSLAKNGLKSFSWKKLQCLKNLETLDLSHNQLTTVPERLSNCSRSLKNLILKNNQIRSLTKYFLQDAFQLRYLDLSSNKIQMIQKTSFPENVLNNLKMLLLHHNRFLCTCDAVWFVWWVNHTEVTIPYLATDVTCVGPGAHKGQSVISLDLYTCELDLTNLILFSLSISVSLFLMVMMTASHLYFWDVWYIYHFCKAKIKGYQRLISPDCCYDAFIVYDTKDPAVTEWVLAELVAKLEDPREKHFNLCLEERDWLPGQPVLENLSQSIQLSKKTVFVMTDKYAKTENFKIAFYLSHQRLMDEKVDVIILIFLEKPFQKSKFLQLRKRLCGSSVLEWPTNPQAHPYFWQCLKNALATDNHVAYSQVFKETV
Protocol: HEK blue hTLR7 or hTLR8 reporter cells (Invivogen) were cultivated in DMEM High Glucose (Biowest) according to the manufacturer’s instructions. Cells were treated with test compounds and controls at various concentrations in serum-free DMEM and incubated at 37°C, 5% CO2 for 24 h before supernatants were collected.
Relative secreted embryonic alkaline phosphatase (SEAP) activity in the supernatants was determined by quantification of para-Nitrophenyl Phosphate (pNPP)-turnover. Supernatants were diluted 10-fold in a solution containing 1 mM MgCl2, 1 M diethanolamine and 1 mg/mL pNPP and incubated at RT for 15 min before the reaction was stopped by the addition of 0.25 volumes of 1 M NaOH. Absorbance was measured at 405 nm on a Versamax microplate reader (Molecular Devices) and normalized to the mean of >5 solvent controls.
To obtain reliable estimates, replicate measurements of a minimum of 2 experiments were normalized to the maximal SEAP activity of a compound in a given experiment and pooled before fitting a non-linear function to the data.

[1] = Cassette bioavailability i.v., i.p., p.o. (blood and organ concentrations by HPLC-MS/MS); format: in vivo, C57BL/6 mice; details: for concentration at 1440 min / Cmax: female, C57BL/6, mouse; for Cmax: 15 min after application
Protocol: All samples were extracted with 3 or 6 volumes acetonitrile containing terbuthylazine as an internal standard (ACN) relative to either sample weight or volume. Liquid samples (plasma, culture medium, cell suspensions in stability experiments) were diluted in either 3 (culture medium, cell suspensions) or 6 (plasma) volumes ACN, pellet and blood samples were extracted by addition of ACN followed by sonication for 5 min. Organ samples were digested with 0.5 µg/mg Proteinase K (Genaxxon) for 1 h at 50°C before being homogenized using a Fastprep FP-24 5G instrument (MP-Biomedicals). Homogenates were diluted with 6 volumes ACN and homogenized again. All extracts were cleared by centrifugation at ~20.000xg for 10 min at 4°C.
Quantification of analytes was performed on an Agilent 1260/1290 Infinity system fitted with an Agilent C18 Poroshell 120 column (4.6 x 50 mm, 2.7 µm) coupled to a triple quadrupole Sciex API 4000 MS/MS detector. The mobile phase was composed of water containing 0.1% formic acid (eluent A) and acetonitrile containing 0.1% formic acid (eluent B). Gradient used was: 5% B for 0.5 min, to 100% B in 4.5 min, 100% B for 2 min, to 5% B in 0.5 min, 5% for 2.5 min. MS detection parameters are listed in SI Table S1 .
Experimental Animals. All animal experiments were carried out in accordance with German law (35/9183.81-7/SYN 06/20). Mice, 8-18 weeks old, were purchased from Janvier Laboratories and maintained in a specific-pathogen-free animal facility with chow and water ad libitum. After arrival mice acclimated for a minimum of 7 days.
Formulation. Test compounds were prepared for application in either 1% Tween 80, 9% PEG400 in ultrapure water (Biowest) (i.v., i.p., p.o. application) or 5 mM citric acid in 0.9% saline (Braun) (subcutaneous application). If compounds were administered subcutaneously, injections were carried out into the neck crease.
Collection of Samples. Mice were bled from the tail vein at various timepoints. Heparin (Sigma) or K2-EDTA (Sigma) was added to blood samples to a final […] concentration of 10-15 Unit or 5 mM. Plasma was generated by centrifugation at 6800xg for 8 min at 4°C and stored at -80°C until analyzed by ELISA or CBA. Animals were sacrificed after the indicated time points by CO2 inhalation. Heart blood and organs for compound quantification by HPLC-MS/MS were collected post mortem and stored at –20°C until extracted as described above.
Figure 3 Stability and bioavailability of macrolide conjugates. (A) Stability of A1-mac and A2-mac was measured in human blood, U937 monocytes and RPMI medium over 24 h. […] (B) Peripheral blood was collected 15, 30 60, 120, 180, 240, 360 and 1440 min after compound administration. (C) Organs were sampled 1440 min after compound administration. (A–C) Data are presented as mean ± SD.

[2] = 95% CI, HEK-blue human TLR7, 24 h, read-out: TLR7 EC50
[3] = Figure S3, axis c/[µM], pooled from 3 experiments, read-out: compound-specific EC50 in dose response plot, HEK Blue hTLR7
[4] = kidney, ip, i.p. 2 mg/kg, organs sampled 1440 min after administration, read-out: concentration in kidney
[5] = liver, ip, i.p. 2 mg/kg, organs sampled 1440 min after administration, read-out: concentration in liver
[6] = whole blood (tail vein), iv, i.v. 0.5 mg/kg, tail vein blood

Row | Compound | Average maximal activity in HEK-Blue hTLR7 relative to RSQ (human TLR7) [%] | EC50 (human TLR7; [2]) [µM] | EC50 (human TLR7; [3]) [µM] | TLR7 activity rel. to assay max (human TLR7) | concentration at 1440 min [1, 4] [nM] | concentration at 1440 min [1, 5] [nM] | Cmax [1, 6] [nM] | Cmax ([1]; whole blood, ip, i.p. 2 mg/kg) [nM] | Cmax ([1]; whole blood, po, p.o. 2 mg/kg) [nM] | concentration in liver ([1]; i.p. 2 mg/kg, organs sampled 1440 min after administration)
1 | CCCCc1nc2c(N)nc3ccccc3c2n1CCC1CCN(C(=O)CN(C)CC(=O)N(C)C2CC(C)OC(OC3C(C)C(OC4CC(C)(OC)C(O)C(C)O4)C(C)C(=O)OC(CC)C(C)(O)C(O)C(C)N(C)CC(C)CC3(C)O)C2O)CC1 (stereo not drawn) [A1-mac] | 41 | 0.4 to 0.74 | 0.554 | 41% ± 8% | 586 | 3390 | 392 | 299 | 28 | 
2 | CCCCc1nc2c(N)nc3ccccc3c2n1CCC1CCNCC1 [A1] | 58 | 0.096 to 0.22 | 0.146 | 58% ± 16% |  |  |  |  |  | 
3 | CCCCc1nc2c(N)nc3ccccc3c2n1CC1CCN(C(=O)CN(C)CC(=O)N(C)[C@H]2C[C@@H](C)O[C@@H](O[C@@H]3[C@@H](C)[C@H](O[C@H]4C[C@@](C)(OC)[C@@H](O)[C@H](C)O4)[C@@H](C)C(=O)O[C@H](CC)[C@@](C)(O)[C@H](O)[C@@H](C)N(C)C[C@H](C)C[C@@]3(C)O)[C@@H]2O)CC1 [A2-mac] | 63 | 1.5 to 2 | 1.76 | 63% ± 9% | 449 | 2520 | 352 | 138 | 22 | 
4 | CCOCc1nc2c(N)nc3ccccc3c2n1CC(C)(C)O [RSQ, Resiquimod, reference compound] |  |  |  | 95% ± 5% |  |  | 854 | 123 | 41 | < LOD
